Source: US8642646B2, “Method and composition for treating acne using lignan compounds” (New Tree Industry Co., Ltd., priority 2004, dated 2014)
Converted amounts (≈) assume the structure as drawn.

How the values were obtained:
[1] = system: Propionibacterium acnes; conditions: literature values; cited from earlier work
[2] = system: acne-causing bacteria; assay: Thermal stability: antibacterial activity by well diffusion assay after thermal treatment; format: cell-based; conditions: for Diameter of clear zone on the plate containing macelignan: 0.1% in dimethylsulfoxide
Protocol: The macelignan compound prepared in Example <1-1> was dissolved in dimethylsulfoxide to a concentration of 0.1%. The sample was thermally treated for 30 minutes at different temperatures of 60° C., 70° C., 80° C., 90° C., 100° C., and 121° C. and measured for antibacterial activity by the well diffusion assay.

[3] = system: acne patients; assay: Clinical test on acne patients, oral administration; format: in vivo, human
Protocol: The macelignan isolated and purified in Example <1-1> was clinically tested for acne treatment. • 30 men and women in their mid-30s, who suffer from acne, were selected as test subjects. The macelignan was administered to the test subjects at 600 mg two times a day for 4 weeks.

[4] = system: Staphylococcus epidermis; assay: Minimum inhibitory concentration (MIC), broth serial dilution; format: cell-based; conditions: same method, read-out: Minimum inhibitory concentration against Staphylococcus epidermis
Protocol: (§1) The macelignan compound prepared in Example <1-1> was dissolved in 0.5% methanol, and 1 ml of BHI (Brain Heart Infusion) broth was placed into each of test tubes. 1 ml of 2% macelignan solution was placed only into the first test tube and serially diluted 2-fold. Then, 100 μl of Propionibacterium acnes were added at 2×10^5 CFU/ml to each test tube and cultured at 37° C. for at least 24 hours. […] Using the same method, the minimum inhibitory concentrations against Staphylococcus aureus and Staphylococcus epidermis were also measured and the results are shown in Table 2.

[5] = system: Propionibacterium acnes; assay: as above; format: cell-based; conditions: Cutibacterium acnes; BHI broth, 37° C., at least 24 hours; read-out: Minimum inhibitory concentration against Propionibacterium acnes
Protocol: as §1

[6] = system: Staphylococcus aureus; assay: as above; format: cell-based; conditions: same method, read-out: Minimum inhibitory concentration against Staphylococcus aureus
Protocol: as §1

[7] = system: Propionibacterium acnes; assay: Growth inhibition of Propionibacterium acnes by viable cell counting; format: cell-based; conditions: 37° C.
Protocol: The macelignan compound prepared in Example <1-1> was dissolved in dimethylsulfoxide to concentrations of 0.002%, 0.001% and 0.0005%, respectively. 100 μl of Propionibacterium acnes diluted to 2×10^5 CFU/ml was added to test tubes containing the macelignan solutions and allowed to react at 37° C. for 2 hr, 4 hr, 8 hr, 12 hr, 16 hr, 20 hr, and 24 hr. Each sample was serially diluted 10-fold and subjected to the pour plate method. The plates were cultured in an incubator at 37° C. and measured for viable cell colonies of Propionibacterium acnes.

[8] = oral 600 mg two times a day, 4 weeks

## O=C(OOC(=O)c1ccccc1)c1ccccc1 [benzoyl peroxide]
[1]
  MIC against Propionibacterium acnes: 500 to 1000 µg/mL

## COc1cc(C[C@H](C)[C@H](C)Cc2ccc3c(c2)OCO3)ccc1O [macelignan]
[2]; treated 30 minutes at 60° C.
  Diameter of clear zone on the plate containing macelignan: 17 mm
[2]; treated 30 minutes at 70° C.
  Diameter of clear zone on the plate containing macelignan: 16 mm
[2]; treated 30 minutes at 80° C.
  Diameter of clear zone on the plate containing macelignan: 17 mm
[2]; treated 30 minutes at 90° C.
  Diameter of clear zone on the plate containing macelignan: 17 mm
[2]; treated 30 minutes at 100° C.
  Diameter of clear zone on the plate containing macelignan: 18 mm
[2]; treated 30 minutes at 121° C.
  Diameter of clear zone on the plate containing macelignan: 17 mm
[2]; thermal treatment at 60° C.-121° C.
  thermal stability (change of antibacterial activity after thermal treatment): little or no reduction in antibacterial activity
[3]; [8]
  Comedos, mean number after 4 weeks of administration: 7.94
  Nodules, mean number after 4 weeks of administration: 0.24
  Papules, mean number after 4 weeks of administration: 5.69
  Pustules, mean number after 4 weeks of administration: 2.30
[3]; oral 600 mg two times a day, 4 weeks, p-value<0.05
  number of lesions after 4 weeks compared to before administration: remarkably reduced
[3]; oral, before administration
  Comedos, mean number before administration: 18.92
  Nodules, mean number before administration: 0.74
  Papules, mean number before administration: 14.47
  Pustules, mean number before administration: 5.92
[4]
  MIC: 64 µg/mL (≈ 195 µM)
[5]
  MIC: 2 µg/mL (≈ 6.09 µM)
[6]
  MIC: 125 µg/mL (≈ 381 µM)
[7]; macelignan 0.001% (10 μg/ml)
  time within which the bacteria were almost dead: ≤ 8 h
[7]; macelignan 0.002% (20 μg/ml)
  time within which the bacteria were almost dead: ≤ 2 h

## CC1=CCC(O)(C(C)C)CC1 (stereo not drawn) [terpinen-4-ol]
[1]
  MIC against Propionibacterium acnes: 300 to 500 µg/mL

## benzalkonium chloride
[1]
  MIC against Propionibacterium acnes: 200˜300 μg/ml
